Measurements taken from the supplement of paper PMC12406974.

What was measured:
Experiment in all cases: maximum observed lethal fraction; higher = more cell death
[1] = system: U2OS PTBP1-KO
[2] = system: U2OS BAX/BAK1 DKO
[3] = system: U2OS BCL2L12-KO
[4] = system: U2OS
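Note: FLICK assay: SYTOX Green fluorescence of dead cells tracked over time after drugging in 96-well plates, with total cell counts taken from Triton X-100 lysed wells.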

SMILES | maximum observed lethal fraction ([1]; 0.1 µM) | maximum observed lethal fraction ([1]; 0.316 µM) | maximum observed lethal fraction ([1]; 1 µM) | maximum observed lethal fraction ([1]; 3.16 µM) | maximum observed lethal fraction ([1]; 10 µM) | maximum observed lethal fraction ([2]; 0.1 µM) | maximum observed lethal fraction ([2]; 0.316 µM) | maximum observed lethal fraction ([2]; 1 µM) | maximum observed lethal fraction ([2]; 3.16 µM) | maximum observed lethal fraction ([2]; 10 µM) | maximum observed lethal fraction ([3]; 0.1 µM) | maximum observed lethal fraction ([3]; 0.316 µM) | maximum observed lethal fraction ([3]; 1 µM) | maximum observed lethal fraction ([3]; 3.16 µM) | maximum observed lethal fraction ([3]; 10 µM) | maximum observed lethal fraction ([4]; 0.1 µM) | maximum observed lethal fraction ([4]; 0.316 µM) | maximum observed lethal fraction ([4]; 1 µM) | maximum observed lethal fraction ([4]; 3.16 µM) | maximum observed lethal fraction ([4]; 10 µM) | also measured
O=C(CCCCCCC(=O)Nc1ccccc1)NO [Vorinostat] | 0.0673 | 0.0682 | 0.0906 | 0.316 | 0.481 | 0.0548 | 0.0545 | 0.0635 | 0.0731 | 0.0736 | 0.0673 | 0.0704 | 0.185 | 0.586 | 0.804 | 0.0571 | 0.0602 | 0.0901 | 0.458 | 0.659 | maximum observed lethal fraction ([1]; 31.6 µM): 0.558; maximum observed lethal fraction ([1]; 100 µM): 0.513; maximum observed lethal fraction ([2]; 31.6 µM): 0.081; maximum observed lethal fraction ([2]; 100 µM): 0.084; maximum observed lethal fraction ([3]; 31.6 µM): 0.824; maximum observed lethal fraction ([3]; 100 µM): 0.899; maximum observed lethal fraction ([4]; 31.6 µM): 0.778; maximum observed lethal fraction ([4]; 100 µM): 0.811
C=CC(=O)Nc1ccc(C(=O)Nc2[nH]nc3c2CN(C(=O)N[C@H](CN(C)C)c2ccccc2)C3(C)C)cc1 [YKL-5-124] | 0.0809 | 0.0854 | 0.0868 | 0.0884 | 0.1 | 0.0739 | 0.0839 | 0.0802 | 0.0829 | 0.0948 | 0.0761 | 0.0812 | 0.0841 | 0.0923 | 0.115 | 0.0827 | 0.0923 | 0.161 | 0.221 | 0.274 | maximum observed lethal fraction ([1]; 0.0316 µM): 0.0724; maximum observed lethal fraction ([1]; 31.6 µM): 0.252; maximum observed lethal fraction ([2]; 0.0316 µM): 0.0674; maximum observed lethal fraction ([2]; 31.6 µM): 0.1; maximum observed lethal fraction ([3]; 0.0316 µM): 0.0697; maximum observed lethal fraction ([3]; 31.6 µM): 0.49; maximum observed lethal fraction ([4]; 0.0316 µM): 0.0634; maximum observed lethal fraction ([4]; 31.6 µM): 0.461
Cc1c2oc3c(C)ccc(C(=O)N[C@@H]4C(=O)N[C@H](C(C)C)C(=O)N5CCC[C@H]5C(=O)N(C)CC(=O)N(C)[C@@H](C(C)C)C(=O)O[C@@H]4C)c3nc-2c(C(=O)N[C@@H]2C(=O)N[C@H](C(C)C)C(=O)N3CCC[C@H]3C(=O)N(C)CC(=O)N(C)[C@@H](C(C)C)C(=O)O[C@@H]2C)c(N)c1=O [Actinomycin-D] | 0.243 | 0.368 | 0.328 |  |  | 0.0799 | 0.0933 | 0.0822 |  |  | 0.254 | 0.406 | 0.377 |  |  | 0.4 | 0.637 | 0.578 |  |  | maximum observed lethal fraction ([1]; 0.001 µM): 0.0967; maximum observed lethal fraction ([1]; 0.00316 µM): 0.164; maximum observed lethal fraction ([1]; 0.01 µM): 0.311; maximum observed lethal fraction ([1]; 0.0316 µM): 0.206; maximum observed lethal fraction ([2]; 0.001 µM): 0.0757; maximum observed lethal fraction ([2]; 0.00316 µM): 0.0754; maximum observed lethal fraction ([2]; 0.01 µM): 0.0792; maximum observed lethal fraction ([2]; 0.0316 µM): 0.088; maximum observed lethal fraction ([3]; 0.001 µM): 0.101; maximum observed lethal fraction ([3]; 0.00316 µM): 0.199; maximum observed lethal fraction ([3]; 0.01 µM): 0.648; maximum observed lethal fraction ([3]; 0.0316 µM): 0.35; maximum observed lethal fraction ([4]; 0.001 µM): 0.0789; maximum observed lethal fraction ([4]; 0.00316 µM): 0.0968; maximum observed lethal fraction ([4]; 0.01 µM): 0.505; maximum observed lethal fraction ([4]; 0.0316 µM): 0.545
CC(=O)c1c(C)c2cnc(Nc3ccc(N4CCNCC4)cn3)nc2n(C2CCCC2)c1=O [Palbociclib] | 0.0739 | 0.0802 | 0.0817 | 0.0847 | 0.109 | 0.0686 | 0.0764 | 0.0783 | 0.0842 | 0.0911 | 0.0667 | 0.0699 | 0.0732 | 0.0829 | 0.221 | 0.0645 | 0.0683 | 0.0747 | 0.09 | 0.173 | maximum observed lethal fraction ([1]; 0.01 µM): 0.0641; maximum observed lethal fraction ([1]; 0.0316 µM): 0.0713; maximum observed lethal fraction ([2]; 0.01 µM): 0.0642; maximum observed lethal fraction ([2]; 0.0316 µM): 0.0646; maximum observed lethal fraction ([3]; 0.01 µM): 0.0599; maximum observed lethal fraction ([3]; 0.0316 µM): 0.0645; maximum observed lethal fraction ([4]; 0.01 µM): 0.0597; maximum observed lethal fraction ([4]; 0.0316 µM): 0.068
CC(=O)[C@]1(O)Cc2c(O)c3c(c(O)c2[C@@H](O[C@H]2C[C@H](N)[C@H](O)[C@H](C)O2)C1)C(=O)c1ccccc1C3=O [Idarubicin] | 0.633 | 0.589 | 0.305 |  |  | 0.212 | 0.18 | 0.193 |  |  | 0.74 | 0.724 | 0.321 |  |  | 0.666 | 0.792 | 0.604 |  |  | maximum observed lethal fraction ([1]; 0.001 µM): 0.077; maximum observed lethal fraction ([1]; 0.00316 µM): 0.0792; maximum observed lethal fraction ([1]; 0.01 µM): 0.0832; maximum observed lethal fraction ([1]; 0.0316 µM): 0.2; maximum observed lethal fraction ([2]; 0.001 µM): 0.0756; maximum observed lethal fraction ([2]; 0.00316 µM): 0.0795; maximum observed lethal fraction ([2]; 0.01 µM): 0.0849; maximum observed lethal fraction ([2]; 0.0316 µM): 0.0871; maximum observed lethal fraction ([3]; 0.001 µM): 0.0766; maximum observed lethal fraction ([3]; 0.00316 µM): 0.088; maximum observed lethal fraction ([3]; 0.01 µM): 0.0897; maximum observed lethal fraction ([3]; 0.0316 µM): 0.231; maximum observed lethal fraction ([4]; 0.001 µM): 0.0637; maximum observed lethal fraction ([4]; 0.00316 µM): 0.0722; maximum observed lethal fraction ([4]; 0.01 µM): 0.0707; maximum observed lethal fraction ([4]; 0.0316 µM): 0.166
CO[C@H]1C[C@@H]2CC[C@@H](C)[C@@](O)(O2)C(=O)C(=O)N2CCCC[C@H]2C(=O)O[C@H]([C@H](C)C[C@@H]2CC[C@@H](O)[C@H](OC)C2)CC(=O)[C@H](C)/C=C(\C)[C@@H](O)[C@@H](OC)C(=O)[C@H](C)C[C@H](C)/C=C/C=C/C=C/1C [Rapamycin] | 0.0757 | 0.0711 | 0.0784 | 0.0724 | 0.0767 | 0.0646 | 0.0631 | 0.0613 | 0.0695 | 0.0695 | 0.0721 | 0.0738 | 0.0786 | 0.084 | 0.0965 | 0.0606 | 0.0645 | 0.061 | 0.0607 | 0.0674 | maximum observed lethal fraction ([1]; 0.01 µM): 0.0742; maximum observed lethal fraction ([1]; 0.0316 µM): 0.0686; maximum observed lethal fraction ([2]; 0.01 µM): 0.0624; maximum observed lethal fraction ([2]; 0.0316 µM): 0.0616; maximum observed lethal fraction ([3]; 0.01 µM): 0.0761; maximum observed lethal fraction ([3]; 0.0316 µM): 0.0732; maximum observed lethal fraction ([4]; 0.01 µM): 0.062; maximum observed lethal fraction ([4]; 0.0316 µM): 0.0603
CC1(C)CCC(CN2CCN(c3ccc(C(=O)NS(=O)(=O)c4ccc(NCC5CCOCC5)c([N+](=O)[O-])c4)c(Oc4cnc5[nH]ccc5c4)c3)CC2)=C(c2ccc(Cl)cc2)C1 [ABT-199] | 0.0644 | 0.0635 | 0.0617 | 0.0671 | 0.0741 | 0.0501 | 0.0536 | 0.0531 | 0.0558 | 0.0561 | 0.0643 | 0.0609 | 0.063 | 0.0712 | 0.114 | 0.0502 | 0.0518 | 0.0546 | 0.0609 | 0.0939 | maximum observed lethal fraction ([1]; 31.6 µM): 0.211; maximum observed lethal fraction ([1]; 100 µM): 0.517; maximum observed lethal fraction ([2]; 31.6 µM): 0.0846; maximum observed lethal fraction ([2]; 100 µM): 0.0728; maximum observed lethal fraction ([3]; 31.6 µM): 0.39; maximum observed lethal fraction ([3]; 100 µM): 0.692; maximum observed lethal fraction ([4]; 31.6 µM): 0.239; maximum observed lethal fraction ([4]; 100 µM): 0.52
CN(C)C(=O)c1cc2cnc(Nc3ccc(N4CCNCC4)cn3)nc2n1C1CCCC1 [Ribociclib] | 0.064 | 0.0704 | 0.0696 | 0.0751 | 0.0787 | 0.0609 | 0.0673 | 0.0658 | 0.0721 | 0.082 | 0.0587 | 0.0607 | 0.0645 | 0.07 | 0.0804 | 0.0602 | 0.0591 | 0.0629 | 0.0661 | 0.077 | maximum observed lethal fraction ([1]; 0.01 µM): 0.0584; maximum observed lethal fraction ([1]; 0.0316 µM): 0.0595; maximum observed lethal fraction ([2]; 0.01 µM): 0.0572; maximum observed lethal fraction ([2]; 0.0316 µM): 0.057; maximum observed lethal fraction ([3]; 0.01 µM): 0.0551; maximum observed lethal fraction ([3]; 0.0316 µM): 0.0572; maximum observed lethal fraction ([4]; 0.01 µM): 0.0675; maximum observed lethal fraction ([4]; 0.0316 µM): 0.0565
Nc1cc(C(F)(F)F)c(-c2cc(N3CCOCC3)nc(N3CCOCC3)n2)cn1 [Buparlisib] | 0.0916 | 0.0993 | 0.125 | 0.231 | 0.304 | 0.0661 | 0.0716 | 0.091 | 0.0979 | 0.11 | 0.0866 | 0.0955 | 0.176 | 0.287 | 0.349 | 0.0713 | 0.0748 | 0.109 | 0.275 | 0.463 | maximum observed lethal fraction ([1]; 0.0316 µM): 0.0937; maximum observed lethal fraction ([1]; 31.6 µM): 0.326; maximum observed lethal fraction ([2]; 0.0316 µM): 0.0655; maximum observed lethal fraction ([2]; 31.6 µM): 0.116; maximum observed lethal fraction ([3]; 0.0316 µM): 0.0818; maximum observed lethal fraction ([3]; 31.6 µM): 0.374; maximum observed lethal fraction ([4]; 0.0316 µM): 0.0663; maximum observed lethal fraction ([4]; 31.6 µM): 0.513
COc1ccc(C[C@H]2NC[C@H](O)[C@H]2OC(C)=O)cc1 [Anisomycin] |  | 0.174 | 0.177 | 0.239 | 0.337 |  | 0.114 | 0.119 | 0.103 | 0.111 |  | 0.218 | 0.159 | 0.181 | 0.32 |  | 0.277 | 0.456 | 0.711 | 0.845 | maximum observed lethal fraction ([1]; 31.6 µM): 0.426; maximum observed lethal fraction ([1]; 100 µM): 0.403; maximum observed lethal fraction ([1]; 316 µM): 0.408; maximum observed lethal fraction ([2]; 31.6 µM): 0.121; maximum observed lethal fraction ([2]; 100 µM): 0.109; maximum observed lethal fraction ([2]; 316 µM): 0.107; maximum observed lethal fraction ([3]; 31.6 µM): 0.353; maximum observed lethal fraction ([3]; 100 µM): 0.387; maximum observed lethal fraction ([3]; 316 µM): 0.444; maximum observed lethal fraction ([4]; 31.6 µM): 0.888; maximum observed lethal fraction ([4]; 100 µM): 0.879; maximum observed lethal fraction ([4]; 316 µM): 0.903
O=C(O)C1(C(=O)O)CCC1.[NH2-].[NH2-].[Pt+2] [Carboplatin] |  | 0.0634 | 0.0611 | 0.0647 | 0.0661 |  | 0.0602 | 0.0593 | 0.0612 | 0.0614 |  | 0.0652 | 0.0616 | 0.0672 | 0.0691 |  | 0.0493 | 0.052 | 0.0533 | 0.0546 | maximum observed lethal fraction ([1]; 31.6 µM): 0.0674; maximum observed lethal fraction ([1]; 100 µM): 0.0762; maximum observed lethal fraction ([1]; 316 µM): 0.54; maximum observed lethal fraction ([2]; 31.6 µM): 0.0671; maximum observed lethal fraction ([2]; 100 µM): 0.0722; maximum observed lethal fraction ([2]; 316 µM): 0.0825; maximum observed lethal fraction ([3]; 31.6 µM): 0.0714; maximum observed lethal fraction ([3]; 100 µM): 0.0762; maximum observed lethal fraction ([3]; 316 µM): 0.342; maximum observed lethal fraction ([4]; 31.6 µM): 0.056; maximum observed lethal fraction ([4]; 100 µM): 0.0693; maximum observed lethal fraction ([4]; 316 µM): 0.517
